Measurements taken from PMC4393083, “Antiviral Activity and Possible Mechanism of Action of Constituents Identified in Paeonia lactiflora Root toward Human Rhinoviruses” (PLoS ONE, 2015).
Where two headings read alike, the source gives them in different places.

Columns and labels:
HRV-2 [1] = assay: Virus titration assay, HRV-2 in MRC5 cultures; format: cell-based, human rhinovirus; conditions: PGG 20 μg/mL, PA 100 μg/mL, ribavirin 100 μg/mL; for Log (TCID50/mL) ± SE HRV-2: infected MRC5 cultures, 48 h, infected untreated control 3.93; for Reduction of virus replication (Log (TCID50/mL)) ± SE HRV-2: vs infected untreated control
Experimental: (§1) Virus titers in infected MRC-5 cultures treated with PA and PGG were measured as TCID50 using MTT-based titration method. In brief, MRC5 cells were seeded at 10^5 cells/mL in a 6-well plate. After 24 h, the cell monolayers were treated with 100 μg/mL PA or 20 μg/mL PGG and infected with HRV-2 or HRV-4 in a concentration of 10×TCID50/mL. Uninfected untreated and infected untreated cultures were included in the assay. The 100 μg/mL of ribavirin was used as a reference control. After 48 h incubation at 37°C, the cultures were frozen and thawed at −80°C/25°C. Cell debris was removed by centrifugation (2000 rpm) and the virus supernatants were collected. Virus titration was then performed in HeLa cell cultures. Initially, a 1:10 dilution of each supernatant was prepared followed by 10 serial 2-fold-dilutions, and added to HeLa cell monolayers. After 48 h, cell mortality was measured using an MTT assay stated previously. Graphs were built by plotting dead cell percentages toward virus dilution factors of each virus supernatant. The 50% infectivity point was calculated through a linear regression analysis of the curve.

HRV-4 [2] = assay: Cytopathic effect inhibition assay (MTT), HRV-4 in MRC5 cells; format: cell-based, human rhinovirus; conditions: read-out: IC50 (95% CL) HRV-4
Experimental: (§2) Monolayers of HeLa and MRC5 cells were seeded onto a 96-well culture plate as stated previously. Subsequently, 90 μL media containing several different concentrations (1–1000 μg/mL) of each test material in DMSO was put into the wells, and then 10 μL of 10×TCID50 of the virus stock was added to produce an appropriate CPE within 2 days after infection. Ribavirin served as a reference control and was similarly prepared. Negative controls consisted of the DMSO solution. Viral inhibition rate (VIR) (%) was calculated according to the formula [21], VIR = (A tV—A cV)/(A cd—A cV) × 100, where A tV is the optical density measured with a given concentration of the test compound in HRV infected cells; A cV is the optical density measured for the control untreated HRV infected cells; A cd is the optical density measured for the control untreated HRV uninfected cells.
(§3) The CC50 and IC50 values were determined using GraphPad Prism 5 software program (GraphPad Software, La Jolla, CA). […] The selectivity index (SI) was determined as the ratio of CC50 to IC50 [23]. All data represent the mean ± SD of duplicate or triplicate samples of three independent experiments. Statistical analyses were carried out using SAS 9.13 program (SAS Institute, Cary, NC). Data from two groups were analyzed by a Student’s t-test, and multiple groups were analyzed by a one-way analysis of variance and Bonferroni multiple comparison post-test.

HRV-2 [3] = assay: Cytopathic effect inhibition assay (MTT), HRV-2 in MRC5 cells; format: cell-based, human rhinovirus; conditions: read-out: IC50 (95% CL) HRV-2
Experimental: as §2, §3

[4] = tested on: two HRVs (HRV-2 and HRV-4); assay: Cytopathic effect inhibition assay, summary over both serotypes; format: cell-based, human rhinovirus; conditions: Rhinovirus A; range over HRV-2 and HRV-4, HeLa and MRC5 cells; read-out: IC50 toward two HRVs (range)
Experimental: as §2, §3

[5] = Cytotoxicity MTT assay in MRC5 cells; format: cell-based, human; conditions: human, tetrazolium assay, read-out: CC50 (95% CL)
Experimental: (§4) The cytotoxicity of the test materials to two human cell lines was evaluated using an MTT assay described previously by Morgan. In brief, a 10× stock solution of MTT was prepared by adding 5 mg/mL MTT in phosphate-buffered saline (PBS) (pH 7.4). The stock solution was sterile-filtered and stored at −20°C. HeLa and MRC5 cells were seeded onto 96-well culture plates at a density of 3 × 10^4 cells per well for 1 day. The culture medium was removed and the plates with monolayer cells were replaced with media containing several different concentrations (1–1000 μg/mL) of the test materials in dimethylsulfoxide (DMSO). After incubation at 37°C and 5% CO2 for 2 days, the culture plates were then washed once with 200 μL PBS. A volume of 100 μL medium containing 0.05% MTT were added to each well and then incubated for 4 h at the same condition. After then, MTT solution was removed and 150 μL DMSO was added to each well. Finally, the plate was shaken for 15 min to dissolve the purple formazan crystals that had formed. Absorbance was read at 560 nm by using a VersaMax microplate reader (Molecular Devices, Sunnyvale, CA) with a reference absorbance at 670 nm.
as §3, with “Statistical analyses were carried out using SAS 9.13 program (SAS Institute, Cary, NC).” left out

HRV-2 [6] = assay: Cytopathic effect inhibition assay (MTT), HRV-2 in HeLa cells; format: cell-based, human rhinovirus; conditions: read-out: IC50 (95% CL) HRV-2
Experimental: as §2, §3

[7] = Cytotoxicity MTT assay in HeLa cells; format: cell-based; conditions: human, tetrazolium assay, read-out: CC50 (95% CL)
Experimental: as §4
as §3, with “Statistical analyses were carried out using SAS 9.13 program (SAS Institute, Cary, NC).” left out

HRV-4 [8] = assay: Virus titration assay, HRV-4 in MRC5 cultures; format: cell-based, human rhinovirus; conditions: PGG 20 μg/mL, PA 100 μg/mL, ribavirin 100 μg/mL; for Log (TCID50/mL) ± SE HRV-4: infected MRC5 cultures, 48 h, infected untreated control 3.81; for Reduction of virus replication (Log (TCID50/mL)) ± SE HRV-4: vs infected untreated control
Experimental: as §1

[9] = Human rhinovirus sp., HRV4, MRC5, HRV-4 in MRC5 cells
[10] = Rhinovirus A, HRV2, MRC5, HRV-2 in MRC5 cells

Structure (SMILES)	reduction of the HRV-2 titer (HRV-2 [1])	Log (TCID50/mL) ± SE HRV-2 (HRV-2 [1])	Reduction of virus replication (Log (TCID50/mL)) ± SE HRV-2 (HRV-2 [1])	IC50 (HRV-4 [2]; [9])	IC50 (HRV-2 [3]; HRV-2 in MRC5 cells)	IC50 (HRV-2 [3]; [10])	IC50 [4]	CC50 at 2 days [5]	IC50 (HRV-2 [6]; Rhinovirus A, HRV2, HeLa)	IC50 (HRV-2 [6])	CC50 at 2 days [7]	reduction of the HRV-4 titer (HRV-4 [8])	Log (TCID50/mL) ± SE HRV-4 (HRV-4 [8])	Reduction of virus replication (Log (TCID50/mL)) ± SE HRV-4 (HRV-4 [8])	IC50 (HRV-4 [2]; HRV-4 in MRC5 cells)
NC(=O)c1ncn([C@@H]2O[C@H](CO)[C@@H](O)[C@H]2O)n1 [Ribavirin, reference compound]	30.3%	2.74 ± 0.020 a Log (TCID50/mL)	1.19 ± 0.020 Log (TCID50/mL)	312 µM	240 µM	240 µM	240 to 324 µM	2230 µM	304 µM	304 µM	2340 µM	36.0%	2.44 ± 0.024 a Log (TCID50/mL)	1.37 ± 0.023 Log (TCID50/mL)	–
O=C(OC[C@H]1O[C@@H](OC(=O)c2cc(O)c(O)c(O)c2)[C@H](OC(=O)c2cc(O)c(O)c(O)c2)[C@@H](OC(=O)c2cc(O)c(O)c(O)c2)[C@@H]1OC(=O)c1cc(O)c(O)c(O)c1)c1cc(O)c(O)c(O)c1 [PGG, 1,2,3,4,6-penta-O-galloyl-β-D-glucopyranose]	17.3%	3.25 ± 0.075 b ^b Log (TCID50/mL)	0.68 ± 0.075 Log (TCID50/mL)	17.3 µM	17.9 µM	17.9 µM	11.6 to 17.9 µM	108 µM	11.6 µM	11.6 µM	109 µM	20.7%	3.04 ± 0.038 c Log (TCID50/mL)	0.79 ± 0.038 Log (TCID50/mL)	17.3 µM
COc1ccc(C(C)=O)c(O)c1 [PA, paeonol]	22.4%	3.05 ± 0.046 b Log (TCID50/mL)	0.88 ± 0.046 Log (TCID50/mL)	492 µM	503 µM	503 µM	492 to 608 µM	3140 µM	608 µM	608 µM	3160 µM	27.6%	2.76 ± 0.024 b Log (TCID50/mL)	1.05 ± 0.023 Log (TCID50/mL)	492 µM
